Experimental data reported in ChEMBL document CHEMBL5608141, “Identification of compartment-specific drug sensitivities in CRC organoid-stroma co-cultures” (2024).
Values joined by “and” are separate entries in the source; they are usually repeats but may differ in a detail not shown here. Equal entries are not always repeated. Non-standard residues stand in square brackets, D forms with d. Residues, ends and D or L forms follow the SMILES beside them. Arg(Me) = CNC(=N)NCCC[C@H](N)C(=O)O; d3Pal = N[C@H](Cc1cccnc1)C(=O)O; azaGly = NNC(=O)O

Legend:
Type in all cases: functional, Homo sapiens
Design in all cases: dose or concentration left out as unconfirmed
Colon cancer organoid [1] = assay: Identification of compartment-specific drug sensitivities in O06 CRC organoid-stroma F06 CAF co-cultures. Organoid is transduced with Lucferase2-P2A-EGFP lentivirus, fibroblast with Renilla-dsRed lentivirus. Dual-Glo Luciferase assay is used to report viability data.
Colon cancer organoid [2] = assay: Identification of compartment-specific drug sensitivities in O14 CRC organoid-stroma F14 CAF co-cultures. Organoid is transduced with Lucferase2-P2A-EGFP lentivirus, fibroblast with Renilla-dsRed lentivirus. Dual-Glo Luciferase assay is used to report viability data.
Colon cancer organoid [3] = assay: Identification of compartment-specific drug sensitivities in O20 CRC organoid-stroma F20 CAF co-cultures. Organoid is transduced with Lucferase2-P2A-EGFP lentivirus, fibroblast with Renilla-dsRed lentivirus. Dual-Glo Luciferase assay is used to report viability data.
[4] = Transduced with Lucferase2-P2A-EGFP lentivirus
[5] = Transduced with Renilla-dsRed lentivirus

| Structure (SMILES) | Cell Viability (Colon cancer organoid [1]; [4]) | Cell Viability (Colon cancer organoid [1]; [5]) | Cell Viability (Colon cancer organoid [2]; [4]) | Cell Viability (Colon cancer organoid [2]; [5]) | Cell Viability (Colon cancer organoid [3]; [4]) | Cell Viability (Colon cancer organoid [3]; [5]) |
| --- | --- | --- | --- | --- | --- | --- |
| C[C@@H](c1cccc(C#N)c1)n1cc(Cl)cc(C(N)=O)c1=N.Cl | 92.5611% | 127.503% | 101.632% | 106.42% | 64.4613% | 72.4154% |
| Cc1cc(NC(=O)c2cccc(S(F)(F)(F)(F)F)c2)cc(-n2ccn3nc(-c4cccnc4)cc23)c1 [BAY-309] | 58.4282% | 47.7134% | 149.605% | 88.4633% | 122.672% | 127.793% |
| O=C1NC(c2ccccn2)Sc2ccccc21 (centres undefined) [BTZO-4] | 80.8326% | 70.0316% | 106.577% | 104.892% | 109.35% | 85.8309% |
| O[C@H]1CC[C@H](Nc2ncc3nc(Nc4c(F)cc(F)cc4F)n([C@H]4CCOC4)c3n2)CC1 [TANZISERTIB] | 96.802% | 109.826% | 133.231% | 127.243% | 128.622% | 97.8883% |
| CCCS(=O)(=O)c1nc(NC2CC2)cc(-c2ccc3c(ccn3C3CC(C)(C)NC(C)(C)C3)c2)n1 | 80.022% and 93.4216% | 88.9327% and 142.491% | 124.727% and 116.36% | 92.6394% and 115.077% | 91.7549% and 133.424% | 94.2313% and 119.463% |
| CN1CCN(C(=O)C(C)(C)c2ccc(C(=O)Nc3cn4cc(-c5cc(C(C)(C)C)cc(C(C)(C)C)c5)ccc4n3)cc2)CC1 [T3-CLK-N] | 112.366% | 80.0588% | 123.449% | 101.908% | 83.0148% | 112.725% |
| Cc1cc(C)cc(C(=O)NOCCCCCC(=O)NO)c1 | 13.8956% | 454.718% | 50.2494% | 170.815% | 15.4081% | 402.959% |
| CN(C)C(=O)c1sc2nc(N3CCC(S(C)(=O)=O)CC3)cc(C(F)(F)F)c2c1N [BI-5026] | 108.851% | 103.89% | 89.1429% | 109.835% | 83.1119% | 112.021% |
| CCCCNc1ncc(-c2ccc(CN3CCOCC3)cn2)c(N[C@H]2CC[C@H](O)CC2)n1 | 22.8495% | 123.664% | 12.9881% | 77.7799% | 8.867% | 223.767% |
| CN(C(=O)c1cnn2cccnc12)c1cc2c(cc1N1CCOCC1)C(=O)N(C[C@@H](F)C(C)(C)O)C2 | 93.6773% | 65.3185% | 98.5166% | 101.353% | 85.5909% | 89.8275% |
| CNC(=N)NCCC[C@H](NC(=O)[C@H](CC(C)C)NC(=O)NNC(=O)[C@H](Cc1ccccc1)NC(=O)[C@H](CO)NC(=O)[C@H](CC(N)=O)NC(=O)[C@@H](Cc1cccnc1)NC(=O)[C@H](N)Cc1ccc(O)cc1)C(=O)NCC(N)=O [KISS1-543] (H-[dY][d3Pal]NSF[azaGly]L[Arg(Me)]G-NH2) | 93.1752% | 90.9674% | 105.115% | 104.622% | 101.104% | 120.489% |
| Cc1ccc2nc(NCCN)c3ncc(C)n3c2c1.O=C(O)C(F)(F)F.O=C(O)C(F)(F)F | 94.0156% | 112.188% | 111.823% | 88.3847% | 234.528% | 67.6056% |
| CN1C(=O)c2sccc2N(C)c2nc(Nc3ccc(S(N)(=O)=O)cc3)ncc21 | 23.972% | 57.2364% | 48.6334% | 48.1427% | 35.7299% | 84.1947% |
| COc1ccc(Oc2cc(NCCC(F)(F)F)c3ncc(-c4ccc(C(=O)NC5CC5)c(C)c4)n3n2)c(F)c1F [BAY-1217389] | 5.893% | 100.303% | 9.59% | 58.9964% | 10.0806% | 184.891% |
| COc1cc(OC)cc(-c2noc(N3CCN(C)C4(CCN(c5ccccc5)CC4)C3)n2)c1 | 67.7845% | 115.277% | 135.567% | 106.85% | 90.427% | 110.491% |
| Cc1c(N2CCCC2)nc2ccc(Br)cc2c1C(=O)NC[C@H](CCC(=O)O)c1ccccc1Cl [BAY-6672] | 132.373% | 142.298% | 108.299% | 92.2123% | 83.1045% | 119.315% |
| O=C(CCCCCCNC(=O)c1cnc(N(c2ccccc2)c2ccccc2)nc1)NO [RICOLINOSTAT] | 80.064% | 143.43% | 136.319% | 100.142% | 159.49% | 130.22% |
| O=C1CCc2cc(Nc3cc(OC4CCOCC4)c([N+](=O)[O-])cc3Cl)ccc2N1 | 74.579% | 100.938% | 98.9348% | 106.803% | 150.133% | 114.972% |
| Cc1c(C(=O)O)cc(-c2ccc(C3CCNCC3)cc2)c2ccc(-c3ccc(C(F)(F)F)cc3)cc12.Cl | 69.2582% | 93.9723% | 68.1012% | 79.713% | 115.772% | 99.1911% |
| C[C@H](NC(=O)Nc1cc2[nH]ncc2c(CO)n1)c1ccccn1 [ERKi-NC] | 94.8975% | 86.1568% | 81.1185% | 100.943% | 108.541% | 124.126% |
| CC(=O)c1c(NS(C)(=O)=O)c2cc(-c3ccc(Cl)cc3)c(-c3ccc(Cl)cc3Cl)nc2n(C)c1=O [MRL-CB1-NC] | 117.339% | 76.9916% | 112.083% | 107.66% | 159.821% | 122.581% |
| COc1ccccc1-c1cc(N2CCN(C(=O)OC(C)(C)C)CC2)c(N)nn1 | 99.4085% | 102.712% | 120.209% | 94.5585% | 123.55% | 160.936% |
| c1ccc(C2CCN(c3cnc4c(N5CCOCC5)nccn34)CC2)cc1 | 25.484% | 144.176% | 130.379% | 77.7891% | 90.2822% | 108.246% |
| O=C(Nc1ccc(-c2ccnc(Nc3ccc(N4CCOCC4)cc3)n2)cc1)[C@@H]1CCCN1 | 100.254% | 96.014% | 129.164% | 79.5845% | 139.273% | 76.0213% |
